From the NIST ThermoML archive (doi:10.1016/j.jct.2008.01.009)
± gives the expanded uncertainty stated by the source.

Columns and labels:
[1] = molar heat capacity at saturation pressure; details: Liquid, Small (less than 1 g) adiabatic calorimetry
[2] = molar heat capacity at constant pressure; details: 101.33 kPa, Vacuum adiabatic calorimetry
[3] = for vapor or sublimation pressure / mass density: Liquid; for mass density: Vibrating tube method
[4] = Molar enthalpy of transition or fusion; details: Crystal 1; Adiabatic calorimetry

C1=Cc2ccccc2CC1 [1,2-dihydronaphthalene]
Details | Triple point temperature [K] | mass density [kg/m3] | molar heat capacity [J/K/mol]
[1], 410.93 K | – | – | 257.02 ± 1.2
[1], 426.18 K | – | – | 263.43 ± 1.3
[1], 438.72 K | – | – | 268.69 ± 1.3
[3], 323.15 K | – | 971.8 ± 0.2 | –
[3], 348.15 K | – | 951.1 ± 0.2 | –
[3], 373.15 K | – | 930.3 ± 0.2 | –
[3], 398.15 K | – | 909.7 ± 0.2 | –
[3], 423.15 K | – | 889.1 ± 0.2 | –
[3], 448.15 K | – | 867.8 ± 0.2 | –
[3], 473.15 K | – | 846.1 ± 0.2 | –
[3], Crystal 1, Adiabatic calorimetry | 264.38 ± 0.05 | – | –

Details | molar heat capacity at constant pressure [J/K/mol] | vapor or sublimation pressure [kPa]
[2], 5 K, Crystal 3 | 0.28 ± 0.02 | –
[2], 10 K, Crystal 3 | 2.69 ± 0.03 | –
[2], 20 K, Crystal 3 | 13.26 ± 0.083 | –
[2], 30 K, Crystal 3 | 24.12 ± 0.091 | –
[2], 40 K, Crystal 3 | 33.18 ± 0.11 | –
[2], 50 K, Crystal 3 | 40.87 ± 0.12 | –
[2], 60 K, Crystal 3 | 47.15 ± 0.13 | –
[2], 70 K, Crystal 3 | 52.76 ± 0.15 | –
[2], 80 K, Crystal 3 | 57.88 ± 0.16 | –
[2], 90 K, Crystal 3 | 62.79 ± 0.27 | –
[2], 100 K, Crystal 3 | 67.58 ± 0.27 | –
[2], 120 K, Crystal 3 | 77.47 ± 0.27 | –
[2], 140 K, Crystal 3 | 90.29 ± 0.29 | –
[2], 146 K, Crystal 2 | 95.59 ± 0.3 | –
[2], 146 K, Crystal 3 | 95.33 ± 0.3 | –
[2], 160 K, Crystal 2 | 104.39 ± 0.31 | –
[2], 180 K, Crystal 2 | 115.29 ± 0.32 | –
[2], 194.4 K, Crystal 1 | 126.5 ± 0.32 | –
[2], 194.4 K, Crystal 2 | 124.59 ± 0.32 | –
[2], 200 K, Crystal 1 | 129.36 ± 0.33 | –
[2], 220 K, Crystal 1 | 141.06 ± 0.34 | –
[2], 240 K, Crystal 1 | 155.01 ± 0.36 | –
[2], 250 K, Liquid | 191.22 ± 0.39 | –
[2], 260 K, Crystal 1 | 171.24 ± 0.37 | –
[2], 260 K, Liquid | 195.03 ± 0.4 | –
[2], 264.38 K, Crystal 1 | 175.09 ± 0.37 | –
[2], 264.38 K, Liquid | 196.72 ± 0.4 | –
[2], 280 K, Liquid | 202.59 ± 0.4 | –
[2], 298.15 K, Liquid | 209.64 ± 0.41 | –
[2], 300 K, Liquid | 210.37 ± 0.41 | –
[2], 320 K, Liquid | 218.52 ± 0.42 | –
[2], 340 K, Liquid | 226.88 ± 0.42 | –
[2], 360 K, Liquid | 235.35 ± 0.43 | –
[2], 380 K, Liquid | 243.89 ± 0.44 | –
[2], 400 K, Liquid | 252.39 ± 0.45 | –
[2], 420 K, Liquid | 260.86 ± 0.46 | –
[2], 440 K, Liquid | 269.35 ± 0.47 | –
[2], 460 K, Liquid | 277.87 ± 0.47 | –
[2], 480 K, Liquid | 286.36 ± 0.49 | –
[2], 500 K, Liquid | 294.85 ± 0.5 | –
[3], 290 K, Inclined piston gauge | – | 0.0253 ± 0.001
[3], 299.97 K, Inclined piston gauge | – | 0.0534 ± 0.0011
[3], 310 K, Inclined piston gauge | – | 0.1078 ± 0.0011
[3], 319.99 K, Inclined piston gauge | – | 0.2047 ± 0.0012
[3], 329.98 K, Inclined piston gauge | – | 0.3717 ± 0.0014
[3], 339.99 K, Inclined piston gauge | – | 0.6472 ± 0.0018
[3], 349.98 K, Inclined piston gauge | – | 1.086 ± 0.0024
[3], 359.98 K, Inclined piston gauge | – | 1.76 ± 0.0031
[3], 362.71 K, Twin ebulliometer | – | 1.998 ± 0.01
[3], 364.97 K, Inclined piston gauge | – | 2.214 ± 0.0038
[3], 369.18 K, Twin ebulliometer | – | 2.671 ± 0.011
[3], 369.98 K, Inclined piston gauge | – | 2.766 ± 0.0044
[3], 378.73 K, Twin ebulliometer | – | 4.013 ± 0.011
[3], 385.76 K, Twin ebulliometer | – | 5.332 ± 0.011
[3], 396.37 K, Twin ebulliometer | – | 7.999 ± 0.012
[3], 404.33 K, Twin ebulliometer | – | 10.67 ± 0.013
[3], 410.79 K, Twin ebulliometer | – | 13.33 ± 0.014
[3], 417.49 K, Twin ebulliometer | – | 16.67 ± 0.015
[3], 423.06 K, Twin ebulliometer | – | 19.93 ± 0.017
[3], 430.39 K, Twin ebulliometer | – | 25.02 ± 0.019
[3], 437.8 K, Twin ebulliometer | – | 31.18 ± 0.022
[3], 445.24 K, Twin ebulliometer | – | 38.56 ± 0.025
[3], 452.74 K, Twin ebulliometer | – | 47.37 ± 0.029
[3], 460.3 K, Twin ebulliometer | – | 57.81 ± 0.033
[3], 467.91 K, Twin ebulliometer | – | 70.1 ± 0.038
[3], 475.59 K, Twin ebulliometer | – | 84.53 ± 0.044
[3], 483.32 K, Twin ebulliometer | – | 101.33 ± 0.05
[3], 491.1 K, Twin ebulliometer | – | 120.79 ± 0.06
[3], 498.94 K, Twin ebulliometer | – | 143.26 ± 0.07
[3], 506.84 K, Twin ebulliometer | – | 169.03 ± 0.07

Details | Molar enthalpy of transition or fusion [kcal/mol]
[4] | 2.5198 ± 0.00239
